Assay results published in patent US20250228865A1, “COMPOUNDS FOR ENHANCING READ THROUGH OF GENES CONTAINING PREMATURE TERMINATION CODONS AND METHODS FOR MAKING AND USING THE SAME” (Sanofi US Services Inc., priority 2022, published 2025).

Columns and labels:
[1] = system: recombinant human CFTR carrying the premature stop codon (PTC) mutation G542X; assay: CFTR-PTC mutant translation readthrough, Nanoluc tagged CFTR luminescence (G542X cell line); assay type: cell-based; settings: in combination with G418, G542X cell line; for CFTR G542X ACTIVITY Fold 10 μM G-418: fold over 10 μM G-418; for EC50: 16HBE cells
Summary of the method: (§1)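 Readthrough is the 48 h compound-induced luminescence increase scaled to that of maximal G418 (125-250 μM). Compounds run from 50 μM final in 2-fold steps, ±10 μM G418, on 16HBE lines carrying Nanoluc-tagged CFTR G542X (extracellular loop 4 tag) or R1162X (C-terminal tag), with 3 μM VX-809 present.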

[2] = system: recombinant human CFTR carrying the premature stop codon (PTC) mutation R1162X; assay: CFTR-PTC mutant translation readthrough, Nanoluc tagged CFTR luminescence (R1162X cell line); assay type: cell-based; settings: for CFTR R1162X ACTIVITY Fold 10 μM G-418: fold over 10 μM G-418, in combination with G418; for EC50: in combination with G418, 16HBE cells, read-out: CFTR R1162X ACTIVITY EC50
Summary of the method: as §1

EC50 [1] [nM] | EC50 [2] [nM] | SMILES | CFTR G542X ACTIVITY Fold 10 μM G-418 [1] | CFTR R1162X ACTIVITY Fold 10 μM G-418 [2]
1000 to 10000 | > 10000 | C[C@@H](O)[C@@H]1CN(c2ncc(OCc3c(Cl)cccc3Cl)cn2)CCO1 (racemic) | A′ (A′ = ≥10X) | A′ (A′ = ≥10X)
< 1000 | 1000 to 10000 | OC[C@@H]1CN(c2ncc(OCc3c(Cl)cccc3Cl)cn2)CC[C@@H]1O (racemic) | A′ (A′ = ≥10X) | A′ (A′ = ≥10X)
1000 to 10000 | > 10000 | O=C(O)c1ncn(-c2ccc(OCc3c(Cl)cccc3C(F)(F)F)cn2)n1 [1-(5-{[2-chloro-6-(trifluoromethyl)phenyl]methoxy]pyridin-2-] | C′ (C′ = <5X) | –
1000 to 10000 | > 10000 | O=C(O)C1CCCN(c2ncc(OCc3c(Cl)cccc3C(F)(F)F)cn2)C1 (stereo not shown) [1-(5-{[2-chloro-6-(trifluoromethyl)phenyl]methoxy]pyrimidin-] | – | –
1000 to 10000 | 1000 to 10000 | O=C(O)C1CCN(c2ncc(OCc3c(Cl)cccc3C(F)(F)F)cn2)CC1 [1-(5-{[2-chloro-6-(trifluoromethyl)phenyl]methoxy}pyrimidin-] | C′ (C′ = <5X) | C′ (C′ = <5X)
1000 to 10000 | 1000 to 10000 | CC(O)C1CCN(c2ncc(OCc3c(Cl)cccc3Cl)cn2)C1 (stereo not shown) [1-[1-[5-[(2,6-dichlorophenyl)methoxy]pyrimidin-2-yl]pyrrolidin-3-yl]ethanol] | A′ (A′ = ≥10X) | A′ (A′ = ≥10X)
1000 to 10000 | 1000 to 10000 | CC(=O)N1CCN(c2ncc(OCc3c(Cl)cccc3Cl)cn2)CC1 [1-[4-[5-[(2,6-dichlorophenyl)methoxy]pyrimidin-2-yl]piperazin-1-yl]ethanone] | A′ (A′ = ≥10X) | A′ (A′ = ≥10X)
1000 to 10000 | 1000 to 10000 | Clc1cccc(Cl)c1COc1ccc(-n2cncn2)cc1 [1-[4-[(2,6-dichlorophenyl)methoxy]phenyl]-1,2,4-triazole] | A′ (A′ = ≥10X) | A′ (A′ = ≥10X)
1000 to 10000 | 1000 to 10000 | COCC1CN(c2ccc(OCc3c(Cl)cccc3Cl)cc2)C(=O)N1 (stereo not shown) [1-[4-[(2,6-dichlorophenyl)methoxy]phenyl]-4-(methoxymethyl)imidazolidin-2-one] | B′ (B′ = ≥5X to <10X) | B′ (B′ = ≥5X to <10X)
1000 to 10000 | > 10000 | Clc1cccc(Cl)c1COc1ccc(-n2ccnc2)cc1 [1-[4-[(2,6-dichlorophenyl)methoxy]phenyl]imidazole] | B′ (B′ = ≥5X to <10X) | A′ (A′ = ≥10X)
1000 to 10000 | 1000 to 10000 | O=C1CCC(=O)N1c1ccc(OCc2c(Cl)cccc2Cl)cc1 [1-[4-[(2,6-dichlorophenyl)methoxy]phenyl]pyrrolidine-2,5-dione] | A′ (A′ = ≥10X) | B′ (B′ = ≥5X to <10X)
> 10000 | 1000 to 10000 | OCC(O)c1ccc(OCc2c(Cl)cccc2Cl)cn1 (stereo not shown) [1-[5-[(2,6-dichlorophenyl)methoxy]-2-pyridyl]ethane-1,2-diol] | A′ (A′ = ≥10X) | B′ (B′ = ≥5X to <10X)
1000 to 10000 | 1000 to 10000 | N#Cc1ncn(-c2ncc(OCc3c(Cl)cccc3Cl)cn2)n1 [1-[5-[(2,6-dichlorophenyl)methoxy]pyrimidin-2-yl]-1,2,4-triazole-3-carbonitrile] | A′ (A′ = ≥10X) | C′ (C′ = <5X)
1000 to 10000 | > 10000 | NC(=O)c1ncn(-c2ncc(OCc3c(Cl)cccc3Cl)cn2)n1 [1-[5-[(2,6-dichlorophenyl)methoxy]pyrimidin-2-yl]-1,2,4-triazole-3-carboxamide] | C′ (C′ = <5X) | –
1000 to 10000 | 1000 to 10000 | CN(C(N)=O)c1ncc(OCc2c(Cl)cccc2Cl)cn1 [1-[5-[(2,6-dichlorophenyl)methoxy]pyrimidin-2-yl]-1-methyl-urea] | A′ (A′ = ≥10X) | A′ (A′ = ≥10X)
< 1000 | < 1000 | CC1CN(c2ncc(OCc3c(Cl)cccc3Cl)cn2)CCC1O (stereo not shown) [1-[5-[(2,6-dichlorophenyl)methoxy]pyrimidin-2-yl]-3-methyl-piperidin-4-ol] | A′ (A′ = ≥10X) | A′ (A′ = ≥10X)

EC50 [1] [nM] | EC50 [2] [nM] | SMILES | CFTR G542X ACTIVITY Fold 10 μM G-418 [1] | CFTR R1162X ACTIVITY Fold 10 μM G-418 [2]
< 1000 | 1000 to 10000 | OC1(c2ccccc2)CCN(c2ncc(OCc3c(Cl)cccc3Cl)cn2)CC1 [1-[5-[(2,6-dichlorophenyl)methoxy]pyrimidin-2-yl]-4-phenyl-piperidin-4-ol] | A′ (A′ = ≥10X) | A′ (A′ = ≥10X)
1000 to 10000 | 1000 to 10000 | OC1CN(c2ncc(OCc3c(Cl)cccc3Cl)cn2)C1 [1-[5-[(2,6-dichlorophenyl)methoxy]pyrimidin-2-yl]azetidin-3-ol] | A′ (A′ = ≥10X) | A′ (A′ = ≥10X)
1000 to 10000 | 1000 to 10000 | NC(=O)C1CN(c2ncc(OCc3c(Cl)cccc3Cl)cn2)C1 [1-[5-[(2,6-dichlorophenyl)methoxy]pyrimidin-2-yl]azetidine-3-carboxamide] | B′ (B′ = ≥5X to <10X) | A′ (A′ = ≥10X)
< 1000 | 1000 to 10000 | OC1CCCN(c2ncc(OCc3c(Cl)cccc3Cl)cn2)C1 (stereo not shown) [1-[5-[(2,6-dichlorophenyl)methoxy]pyrimidin-2-yl]piperidin-3-ol] | A′ (A′ = ≥10X) | A′ (A′ = ≥10X)
< 1000 | < 1000 | OC1CCN(c2ncc(OCc3c(Cl)cccc3Cl)cn2)CC1 [1-[5-[(2,6-dichlorophenyl)methoxy]pyrimidin-2-yl]piperidin-4-ol] | A′ (A′ = ≥10X) | A′ (A′ = ≥10X)
< 1000 | < 1000 | NC(=O)C1CCCN(c2ncc(OCc3c(Cl)cccc3Cl)cn2)C1 (stereo not shown) [1-[5-[(2,6-dichlorophenyl)methoxy]pyrimidin-2-yl]piperidine-3-carboxamide] | A′ (A′ = ≥10X) | A′ (A′ = ≥10X)
1000 to 10000 | < 1000 | N#Cc1ccn(-c2ncc(OCc3c(Cl)cccc3Cl)cn2)n1 [1-[5-[(2,6-dichlorophenyl)methoxy]pyrimidin-2-yl]pyrazole-3-carbonitrile] | A′ (A′ = ≥10X) | B′ (B′ = ≥5X to <10X)
< 1000 | < 1000 | NC(=O)c1ccn(-c2ncc(OCc3c(Cl)cccc3Cl)cn2)n1 [1-[5-[(2,6-dichlorophenyl)methoxy]pyrimidin-2-yl]pyrazole-3-carboxamide] | A′ (A′ = ≥10X) | B′ (B′ = ≥5X to <10X)
1000 to 10000 | 1000 to 10000 | NC(=O)C1CCN(c2ncc(OCc3c(Cl)cccc3Cl)cn2)C1 (stereo not shown) [1-[5-[(2,6-dichlorophenyl)methoxy]pyrimidin-2-yl]pyrrolidine-3-carboxamide] | A′ (A′ = ≥10X) | A′ (A′ = ≥10X)
1000 to 10000 | < 1000 | O=C(O)c1ncn(-c2ccc(OCc3c(Cl)cccc3C(F)(F)F)cn2)n1 [1-[5-[[2-chloro-6-(trifluoromethyl)phenyl]methoxy]-2-pyridyl] | B′ (B′ = ≥5X to <10X) | –
1000 to 10000 | 1000 to 10000 | O=C(O)C1CCN(c2ncc(OCc3c(Cl)cccc3C(F)(F)F)cn2)CC1 [1-[5-[[2-chloro-6-(trifluoromethyl)phenyl]methoxy]pyrimidin-] | A; | A′ (A′ = ≥10X)
1000 to 10000 | < 1000 | O=C(O)C1CCCN(c2ncc(OCc3c(Cl)cccc3C(F)(F)F)cn2)C1 (stereo not shown) [1-[5-[[2-chloro-6-(trifluoromethyl)phenyl]methoxy]pyrimidin-] | C′ (C′ = <5X) | –
< 1000 | < 1000 | Cc1cccc(C(F)(F)F)c1COc1cnc(-n2nnc3ccccc32)nc1 [1-[5-[[2-methyl-6-(trifluoromethyl)phenyl]methoxy]pyrimidin-2-yl]benzotriazole] | A′ (A′ = ≥10X) | A′ (A′ = ≥10X)
< 1000 | < 1000 | Cc1cccc(C(F)(F)F)c1COc1cnc(N2CCC(O)CC2)nc1 [1-[5-[[2-methyl-6-(trifluoromethyl)phenyl]methoxy]pyrimidin-2-yl]piperidin-4-ol] | A′ (A′ = ≥10X) | A′ (A′ = ≥10X)
< 1000 | 1000 to 10000 | O=C1CN(Cc2ccccc2)C(=O)N1c1ncc(OCc2ccccc2)cn1 [1-benzyl-3-(5-benzyloxypyrimidin-2-yl)imidazolidine-2,4-dione] | A′ (A′ = ≥10X) | A′ (A′ = ≥10X)
> 10000 | > 10000 | CCCCN1CC(=O)N(c2ncc(OCc3c(Cl)cccc3Cl)cn2)C1=O [1-butyl-3-[5-[(2,6-dichlorophenyl)methoxy]pyrimidin-2-yl]imidazolidine-2,4-dione] | – | C′ (C′ = <5X)
